Results: patent US9193697B2, “Oxazole derivatives useful as modulators of FAAH” (MERCK SHARP & DOHME CORP., priority 2010, dated 2015)
pIC50: −log10 of the molar value.

Key:
[1] = target: T1, human FAAH (Fatty Acid Amide Hydrolase) (Homo sapiens (Human), UniProt O00519); assay: FAAH inhibition, human FAAH CHO whole cell format; format: cell-based
From the text: (§1) To assist in assay development stable cell lines for human, murine and rat full length FAAH were developed. […] The full length FAAH was subcloned into the mammalian expression vector, pcDEF.neo, using XbaI and EcoRI restriction sites and used for stable cell line generation.
(§2) The full length murine FAAH was subcloned into the mammalian expression vector, pcDEFneo using either EcoRI (murine) or KpnI and EcoRI (rat) restriction sites. Chinese hamster ovary cells (CHO) were transfected following manufacturers protocol (AMAXA). Forty eight hours post transfection, cells were trypsinized and transferred to 96 well plates in Iscove's DMEM media supplemented with 2 mM Glutamine, 10% fetal calf serum, 1 mg/ml geneticin and HT Supplement (0.1 mM sodium hypoxanthine, 0.016 mM thymidine) in order to isolate single clones. […] Following removal of tissue culture media cells were dislodged following addition of Cellstripper (Mediatech, Inc. Manassas, Va.) and transferred to 96 well black clear bottom assay plate, centrifuged at 1,000 rpm for 3 mins and media removed and replaced with assay buffer (50 mM Tris pH8.0, 1 mM EDTA, 0.1% fatty acid free BSA). The reaction was initiated by addition of fluorescent substrate, AMC Arachidonoyl Amide (Cayman Chemical, Ann Arbor, Mich.) to 1 μM and reaction allowed to proceed for 2 hours at room temperature. Release of fluorescence was monitored in a CytoFluor Multiplate Reader.
(§3) Assays are performed on either cell lysate or microsome fractions prepared as described or in whole cell format employing either the fluorescent substrate AAMCA (Cayman chemical, Ann Arbor, Mich.,) or ^3H-anandamide ([ETHANOLAMINE-1-3H] American Radiolabeled Chemicals; 1 mCi/ml). […] AAMCA substrate was used to achieve a final concentration of 1 μM and reaction allowed to proceed at room temperature for 1-3 hours. […] Whole cell assay is conducted with cells harvested after rinsing tissue culture flasks three times with Ca^++Mg^++ free PBS, incubating for 10 min in Enzyme free dissociation media and centrifuging for 5 minutes at 1,000 rpm in table top centrifuge. Cells are resuspended in assay buffer at desired cell number in (4×10^4 cells/assay in 96-well format; 1×10^4 cells/assay in 384-well format) and assayed as described.

[2] = target: T1, human FAAH (Fatty Acid Amide Hydrolase); assay: FAAH inhibition, human FAAH CHO cell lysate (AAMCA fluorescence); format: biochemical
From the text: as §1, §2
CHO cells expressing FAAH were used to prepare either crude cell lysate or microsome fractions. To harvest cells, tissue culture media was decanted, the monolayer washed three times with Ca^++Mg^++ free PBS and cells recovered after 15 min in enzyme free dissociation media (Millipore Corp, Billerica, Mass.). Cells were collected by centrifuging at 2000 rpm for 15 min, and the cell pellet re-suspended with 50 mM HEPES (pH 7.4) containing 1 mM EDTA and the protease inhibitors aprotinin (1 mg/ml) and leupeptin (100 μM). The suspension was sonicated at 4° C. and the cell lysate recovered after centrifuging at 12,000×g (14,600 rpm, SS34 rotor) for 20 min at 4° C. to form a crude pellet of cell debris, nuclei, peroxisomes, lysosomes, and mitochondria; the supernatant or cell lysate was used for FAAH enzyme assay. In some eases, microsomes fractions enriched in FAAH were prepared by centrifuging the cell lysate further at 27,000 rpm (100,000×g) in SW28 rotor for 50 minutes at 4° C. The pellet containing FAAH-enriched microsomes was re-suspend in 50 mM HEPES, (pH 7.4) 1 mM EDTA, and any remaining DNA sheared by passage of material through a 23 gauge needle and aliquots of enzyme were store at −80° C. prior to use.
as §3
Alternatively, assays are performed using anandamide [ethanolamine 1-^3H] (specific activity of 10 Ci/mmol) diluted with cold anandamide to achieve a final assay concentration of 1 μM anandamide (˜50,000 cpm). Enzyme (CHO cell lysate, brain or liver homogenate) is incubated in assay buffer (50 mM Phosphate, pH 8.0, 1 mM EDTA, 200 mM KCl, 0.2% glycerol, 0.1% fatty acid free BSA) with inhibitor at 25° C. for 30 minutes.

T1 sequence (O00519 whole entry): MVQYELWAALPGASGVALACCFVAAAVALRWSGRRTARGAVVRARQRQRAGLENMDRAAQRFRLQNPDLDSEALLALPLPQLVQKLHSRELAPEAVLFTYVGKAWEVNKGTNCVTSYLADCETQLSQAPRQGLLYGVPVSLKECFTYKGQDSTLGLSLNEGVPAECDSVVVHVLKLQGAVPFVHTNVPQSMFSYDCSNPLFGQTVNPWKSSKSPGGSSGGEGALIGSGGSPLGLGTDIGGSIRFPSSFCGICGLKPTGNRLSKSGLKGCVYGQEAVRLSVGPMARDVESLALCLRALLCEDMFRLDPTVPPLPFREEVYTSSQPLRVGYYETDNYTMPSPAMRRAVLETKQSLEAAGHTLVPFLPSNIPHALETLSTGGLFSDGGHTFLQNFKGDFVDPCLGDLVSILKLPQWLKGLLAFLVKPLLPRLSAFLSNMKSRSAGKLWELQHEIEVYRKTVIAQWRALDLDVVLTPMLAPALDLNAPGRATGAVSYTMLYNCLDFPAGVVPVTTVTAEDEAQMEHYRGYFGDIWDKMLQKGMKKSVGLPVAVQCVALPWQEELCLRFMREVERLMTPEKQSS

SMILES | pIC50 [1] | pIC50 [2]
CCOC(=O)N1CCC(c2nc(-c3ccc([S+](C)[O-])cc3)c(Sc3ccc(Cl)cn3)o2)CC1 (stereo not drawn) [Example A7.23, ethyl 4-{5-[(5-chloropyridin-2-yl)sulfanyl]-4-[4-(methylsulfinyl)phenyl]-1,3-oxazol-2-yl}piperidine-1-carboxylate] | 6.36 | 7.21
COCCOC(=O)N1CCC(c2nc(-c3ccc([S+](C)[O-])cc3)c(Sc3ccc(Cl)cn3)o2)CC1 (stereo not drawn) [Example A7.24, 2-methoxyethyl 4-{5-[(5-chloropyridin-2-yl)sulfanyl]-4-[4-(methylsulfinyl)phenyl]-1,3-oxazol-2-yl}piperidine-1-carboxylate] | 5.88 | 6.70
COCCOCC(=O)N1CCC(c2nc(-c3ccc([S+](C)[O-])cc3)c(Sc3ccc(Cl)cn3)o2)CC1 (stereo not drawn) [Example A7.25, 1-(4-{5-[(5-chloropyridin-2-yl)sulfanyl]-4-[4-(methylsulfinyl)phenyl]-1,3-oxazol-2-yl}piperidin-1-yl)-2-(2-methoxyethoxy)ethanone] | 5.33 | 6.28
COCCOCCOCC(=O)N1CCC(c2nc(-c3ccc([S+](C)[O-])cc3)c(Sc3ccc(Cl)cn3)o2)CC1 (stereo not drawn) [Example A7.26] | 5.18 | 6.13
C[S+]([O-])c1ccc(-c2nc(C3CCN(C(=O)OCCN4CCOCC4)CC3)oc2Sc2ccc(Cl)cn2)cc1 (stereo not drawn) [Example A7.27, 2-(morpholin-4-yl)ethyl 4-{5-[(5-chloropyridin-2-yl)sulfanyl]-4-[4-(methylsulfinyl)phenyl]-1,3-oxazol-2-yl}piperidine-1-carboxylate] | 5.30 | 6.32
CN(C)CCOC(=O)N1CCC(c2nc(-c3ccc([S+](C)[O-])cc3)c(Sc3ccc(Cl)cn3)o2)CC1 (stereo not drawn) [Example A7.29, 2-(dimethylamino)ethyl 4-{5-[(5-chloropyridin-2-yl)sulfanyl]-4-[4-(methylsulfinyl)phenyl]-1,3-oxazol-2-yl}piperidine-1-carboxylate] | ≤ 5.00 | 5.72
C[S+]([O-])c1ccc(-c2nc(C3CCN(C(=O)OCCNCCO)CC3)oc2Sc2ccc(Cl)cn2)cc1 (stereo not drawn) [Example A7.30, 2-[(2-hydroxyethyl)amino]ethyl 4-{5-[(5-chloropyridin-2-yl)sulfanyl]-4-[4-(methylsulfinyl)phenyl]-1,3-oxazol-2-yl}piperidine-1-carboxylate] | ≤ 5.00 | 5.67
Clc1ccc(Sc2oc(C3CCOCC3)nc2C2CCNCC2)nc1 [Example A7.31, 5-chloro-2-{[4-(piperidin-4-yl)-2-(tetrahydro-2H-pyran-4-yl)-1,3-oxazol-5-yl]sulfanyl}pyridine] | ≤ 5.00 | 5.00
CC(C)(O)c1ccc(-c2nc(C3CCOCC3)oc2Sc2ccc(Cl)cc2)cn1 [Example B5.1, 2-(5-{5-[(4-chlorophenyl)sulfanyl]-2-(tetrahydro-2H-pyran-4-yl)-1,3-oxazol-4-yl}pyridin-2-yl)propan-2-ol] | 7.35 | 7.75
Clc1ccc(Sc2oc(C3CCOCC3)nc2-c2ccc3[nH]ncc3c2)cc1 [Example B5.2, 5-{5-[(4-chlorophenyl)sulfanyl]-2-(tetrahydro-2H-pyran-4-yl)-1,3-oxazol-4-yl}-1H-indazole] | 7.96 | 8.38
Clc1ccc(Sc2oc(C3CCOCC3)nc2-c2ccc(N3CCOCC3)nc2)cc1 [Example B5.3, 4-(5-{5-[(4-chlorophenyl)sulfanyl]-2-(tetrahydro-2H-pyran-4-yl)-1,3-oxazol-4-yl}pyridin-2-yl)morpholine] | 7.41 | 7.89
Clc1ccc(Sc2oc(C3CCOCC3)nc2-c2cnc3[nH]ccc3c2)cc1 [Example B5.4, 5-{5-[(4-chlorophenyl)sulfanyl]-2-(tetrahydro-2H-pyran-4-yl)-1,3-oxazol-4-yl}-1H-pyrrolo[2,3-b]pyridine] | 7.20 | 7.56
Clc1ccc(Sc2oc(C3CCOCC3)nc2-c2cnn(CC3OCCO3)c2)cc1 [Example B5.5, 5-[(4-chlorophenyl)sulfanyl]-4-[1-(1,3-dioxolan-2-ylmethyl)-1H-pyrazol-4-yl]-2-(tetrahydro-2H-pyran-4-yl)-1,3-oxazole] | 5.98 | 6.59

Continued, values first:

pIC50 [1] | pIC50 [2] | SMILES
6.38 | 6.93 | Clc1ccc(Sc2oc(C3CCOCC3)nc2-c2ccc3ncnn3c2)cc1 [Example B5.6, 6-{5-[(4-chlorophenyl)sulfanyl]-2-(tetrahydro-2H-pyran-4-yl)-1,3-oxazol-4-yl}[1,2,4]triazolo[1,5-a]pyridine]
6.77 | 7.04 | Cn1nnc2ccc(-c3nc(C4CCOCC4)oc3Sc3ccc(Cl)cc3)cc21 [Example B5.7, 6-{5-[(4-chlorophenyl)sulfanyl]-2-(tetrahydro-2H-pyran-4-yl)-1,3-oxazol-4-yl}-1-methyl-1H-benzotriazole]
6.13 | 6.84 | Clc1ccc(Sc2oc(C3CCOCC3)nc2-c2cn[nH]c2)cc1 [Example B5.8, 5-[(4-chlorophenyl)sulfanyl]-4-(1H-pyrazol-4-yl)-2-(tetrahydro-2H-pyran-4-yl)-1,3-oxazole]
6.94 | 8.02 | Clc1ccc(Sc2oc(C3CCOCC3)nc2-c2ccc(N3CCNCC3)nc2)cc1 [Example B5.9, 1-(5-{5-[(4-chlorophenyl)sulfanyl]-2-(tetrahydro-2H-pyran-4-yl)-1,3-oxazol-4-yl}pyridin-2-yl)piperazine]
7.01 | 7.17 | Clc1ccc(Sc2oc(C3CCOCC3)nc2-c2cnc3[nH]ncc3c2)cc1 [Example B5.10, 5-{5-[(4-chlorophenyl)sulfanyl]-2-(tetrahydro-2H-pyran-4-yl)-1,3-oxazol-4-yl}-1H-pyrazolo[3,4-b]pyridine]
7.43 | 7.88 | CN(C)c1ncc(-c2nc(C3CCOCC3)oc2Sc2ccc(Cl)cc2)cn1 [Example B5.11, 5-{5-[(4-chlorophenyl)sulfanyl]-2-(tetrahydro-2H-pyran-4-yl)-1,3-oxazol-4-yl}-N,N-dimethylpyrimidin-2-amine]
6.55 | 6.95 | Clc1ccc(Sc2oc(C3CCOCC3)nc2-c2cnc3cc[nH]c3c2)cc1 [Example B5.12, 6-{5-[(4-chlorophenyl)sulfanyl]-2-(tetrahydro-2H-pyran-4-yl)-1,3-oxazol-4-yl}-1H-pyrrolo[3,2-b]pyridine]
6.07 | 6.49 | COC(=O)Cn1cc(-c2nc(C3CCOCC3)oc2Sc2ccc(Cl)cc2)cn1 [Example B5.13, methyl (4-{5-[(4-chlorophenyl)sulfanyl]-2-(tetrahydro-2H-pyran-4-yl)-1,3-oxazol-4-yl}-1H-pyrazol-1-yl)acetate]
≤ 5.00 | 5.34 | Clc1ccc(Sc2oc(C3CCOCC3)nc2C2=CCCNC2)cc1 [Example B5.15, 5-{5-[(4-chlorophenyl)sulfanyl]-2-(tetrahydro-2H-pyran-4-yl)-1,3-oxazol-4-yl}-1,2,3,6-tetrahydropyridine]
6.98 | 7.93 | C[S+]([O-])c1ccc(-c2nc(C3=CCCCC3)oc2Sc2ccc(Cl)cc2)cc1 (stereo not drawn) [Example C6.1, 5-[(4-chlorophenyl)sulfanyl]-2-(cyclohex-1-en-1-yl)-4-[4-(methylsulfinyl)phenyl]-1,3-oxazole]
7.33 | 8.06 | C[S+]([O-])c1ccc(-c2nc(C3=CCC(O)CC3)oc2Sc2ccc(Cl)cc2)cc1 (stereo not drawn) [Example C6.2, 4-{5-[(4-Chlorophenyl)sulfanyl]-4-[4-(methylsulfinyl)phenyl]-1,3-oxazol-2-yl}cyclohex-3-en-1-ol]
